One experiment addresses T1, α4β1 integrin (Homo sapiens, UniProt P05556+P13612).
T1 construct: a T-cell line, Jurkat, known to express the α4β1 integrin; host or cells: Jurkat T-cell line
The experiment is described as follows: Jurkat-Endothelial Cell Adhesion Assay (Jurkat EC). Format: cell-based. Conditions: Jurkat cell adhesion to IL-1 stimulated endothelial cell monolayers. As for the experimental part:
The following assay established the activity of the present compounds in inhibiting β1-mediated cell adhesion in a representative in vitro system. This assay measures the adhesive interactions of a T-cell line, Jurkat, known to express the α4β1 integrin, to endothelial monolayers in the presence of test compounds. The test compounds were added in increasing concentrations to T-cells and then the T-cell compound mixture was added to IL-1 stimulated endothelial cell monolayers. The plates were incubated, washed and the percentage of attached cells was quantitated.
Human umbilical vein endothelial cells were purchased from Clonetics (San Diego, CA.) at passage number 2. The cells were grown on 0.5% porcine skin gelatin pre-coated flasks (Sigma, St. Louis MO.) in EGM-UV media (Clonetics, San Diego, CA) supplemented with 10% fetal bovine serum. Cells are refed every 2-3 days reaching confluence by day 4 to 6. […] The endothelial cells are not used following passage 6.
The T-cell line Jurkat was obtained from American Type Tissue Culture Collection (Rockville, MD) and the cells were cultured in RPMI containing 10 % fetal calf serum. The cells were washed twice in Hank's Balanced Salt Solution (HBSS) and resuspended in Dulbecco's Minimal Eagle's Media (DMEM) containing 2.5 mg/ml Human Serum Albumin (HSA). Jurkat cells (1x10^6 cells/ml) were stained with 10 ng/ml BCECF-AM (Molecular Probes, Eugene, OR)) in HBSS without phenol red. The cells were loaded with BCECF for 60 minutes in the dark at 37°C, washed 2 times, and resuspended in DMEM-HSA solution.
Confluent endothelial monolayers, grown in 96-well tissue culture plates, were stimulated for 4 hr. at 37 °C with 0.1 ng/ml (∼50 U/ml) recombinant IL-1 (Amgen, Thousand Oaks, CA). Following this incubation, the monolayers were washed twice with HBSS and 0.1 ml of DMEM-HSA solution was added. Jurkat cells (5 x 10^5 cells) were combined with the appropriate concentration of the test compound and 0.1 ml of the Jurkat cell-compound mixture was added to the endothelial cell monolayers. Generally, 100, 20, 5 and 1.25 µM compound concentrations were tested. […] Following this incubation, the monolayers were washed twice with PBS containing 1 mM calcium chloride and 1 mM magnesium chloride' and the plates were read using a Millipore Cytofluor 2300 (Marlboro, MA.). Fluorescence in each well was measured as Arbitrary Fluorescence Units and percent adhesion in the absence of compound was adjusted to 100% and the % adhesion in the presence of compound was calculated. Monolayers were also fixed in 3% paraformaldehyde and evaluated microscopically to verify the adhesion. This procedure is a modification of a previously published method (Cardarelli et al., J. Biol. Chem. 269:18668-18673 (1994)).

A further experiment has as its target T2, α4β1 (Homo sapiens, UniProt P05556+P13612).
T2 construct: 100 µl of Jurkat cells (2.5 x 10^6 cells/ml) in DMEM plus BSA; host or cells: Jurkat T-cell line
Briefly: Jurkat-CS-1 assay. Format: cell-based. Conditions: Jurkat cell adhesion to immobilized CS-1 derived peptide. Here is the method: The CS-1 derived peptide, CLHPGEILDVPST, and the scrambled control peptide, CLHGPIELVSDPT, were synthesized on a Beckman 990 synthesizer using t-Boc methodology. The peptides were immobilized onto microtiter plates using the heterobifunctional crosslinker 3-(2-pyridyldithio)propionic acid N-hydroxysuccinimide ester (SPDP) as reported by Pierschbacher et al., Proc. Natl. Acad. USA, 80:1224-1227 (1983). Microtiter plates were coated with 20 µg/ml HSA for 2 hr. at room temperature, washed once with PBS and derivatized with 10 µg/ml SPDP for 1 hr. After washing, 100 µl of a 100 µg/ml cysteine containing peptide solution which had been recently dissolved was added to the wells and allowed to crosslink to the plates overnight at 4 °C. Unbound peptide was removed from plates by washing with PBS. To block non-reacted sites, the plates are coated with 100 µl of a 2.5 mg/ml BSA solution in PBS for 1 hr. at 37 °C. 100 µl of Jurkat cells (2.5 x 10^6 cells/ml) in DMEM plus BSA (2.5 mg/ml) was mixed with an appropriate concentration of the compound to be tested and the mixture was added to peptide coated dishes and incubated for 1 hr. at 37 °C. Generally 100, 20, 5 and 1.25 µM concentrations of the compound were tested.
Following this incubation the plates were washed once with PBS and the attached cells were fixed with 3% paraformaldehyde in PBS and stained with 0.5% toluidine blue in 3.7% formaldehyde. The cells were stained overnight at room temperature and the optical density at 590 nm of toluidine blue stained cells was determined using a vertical pathway spectrophotometer to quantitate attachment (VMAX Kinetic Microplate Reader, Molecular Devices, Menlo Park, CA). This procedure is a modification of a previously published method (Cardarelli et al, J. Biol. Chem., 269:18668-18673 (1994) and Cardarelli et al, Proc. Natl. Acad. Sci. USA, 83:2647-2651 (1986)).

T2 sequence (P13612 34-1032): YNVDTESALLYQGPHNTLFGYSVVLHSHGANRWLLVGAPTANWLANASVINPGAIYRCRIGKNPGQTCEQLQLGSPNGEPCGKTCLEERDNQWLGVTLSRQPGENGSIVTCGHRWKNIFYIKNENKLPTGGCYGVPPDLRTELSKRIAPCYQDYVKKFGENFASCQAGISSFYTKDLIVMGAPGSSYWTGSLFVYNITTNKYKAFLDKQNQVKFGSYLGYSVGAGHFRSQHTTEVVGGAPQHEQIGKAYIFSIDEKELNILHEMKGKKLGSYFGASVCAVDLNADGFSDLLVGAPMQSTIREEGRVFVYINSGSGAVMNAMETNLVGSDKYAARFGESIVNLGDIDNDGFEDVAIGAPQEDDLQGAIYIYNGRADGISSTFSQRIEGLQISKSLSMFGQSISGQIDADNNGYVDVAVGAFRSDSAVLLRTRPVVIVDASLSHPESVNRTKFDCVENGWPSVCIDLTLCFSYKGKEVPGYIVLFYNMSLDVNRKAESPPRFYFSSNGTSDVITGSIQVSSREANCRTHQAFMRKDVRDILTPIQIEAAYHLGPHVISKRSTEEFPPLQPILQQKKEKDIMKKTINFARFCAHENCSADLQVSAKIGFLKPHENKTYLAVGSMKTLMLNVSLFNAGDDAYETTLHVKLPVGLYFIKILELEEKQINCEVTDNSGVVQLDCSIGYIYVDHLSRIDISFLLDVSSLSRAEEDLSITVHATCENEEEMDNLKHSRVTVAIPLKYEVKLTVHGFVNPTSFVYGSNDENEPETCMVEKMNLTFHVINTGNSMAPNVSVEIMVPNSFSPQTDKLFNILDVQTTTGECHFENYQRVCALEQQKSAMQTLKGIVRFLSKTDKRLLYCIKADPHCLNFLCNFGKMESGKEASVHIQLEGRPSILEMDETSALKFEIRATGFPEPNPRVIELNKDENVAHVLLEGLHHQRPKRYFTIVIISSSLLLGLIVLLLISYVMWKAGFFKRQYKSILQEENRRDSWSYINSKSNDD
T2 sequence (P05556 21-798): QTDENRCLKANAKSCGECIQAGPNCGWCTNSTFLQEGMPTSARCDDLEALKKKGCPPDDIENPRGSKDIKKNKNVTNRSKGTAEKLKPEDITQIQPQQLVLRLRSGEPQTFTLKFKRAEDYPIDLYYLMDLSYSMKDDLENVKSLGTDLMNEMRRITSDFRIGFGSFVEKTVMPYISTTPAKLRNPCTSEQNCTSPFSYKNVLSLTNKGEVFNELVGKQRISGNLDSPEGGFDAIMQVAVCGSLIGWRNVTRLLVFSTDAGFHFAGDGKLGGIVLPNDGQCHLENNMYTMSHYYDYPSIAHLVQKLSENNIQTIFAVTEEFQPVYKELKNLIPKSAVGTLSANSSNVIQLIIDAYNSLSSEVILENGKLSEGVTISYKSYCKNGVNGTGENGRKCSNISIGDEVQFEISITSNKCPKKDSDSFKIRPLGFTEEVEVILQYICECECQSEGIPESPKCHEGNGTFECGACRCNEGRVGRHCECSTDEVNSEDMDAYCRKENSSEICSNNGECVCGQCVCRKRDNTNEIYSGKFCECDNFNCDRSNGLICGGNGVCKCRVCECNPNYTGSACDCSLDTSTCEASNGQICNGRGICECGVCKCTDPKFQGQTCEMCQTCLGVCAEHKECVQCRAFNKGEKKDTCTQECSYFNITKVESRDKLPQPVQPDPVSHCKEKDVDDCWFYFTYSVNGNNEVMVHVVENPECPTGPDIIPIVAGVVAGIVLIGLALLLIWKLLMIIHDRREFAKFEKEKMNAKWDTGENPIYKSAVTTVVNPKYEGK
T1 sequence (P13612 34-1032): as the sequence (P13612 34-1032) above
T1 sequence (P05556 21-798): as the sequence (P05556 21-798) above

What is called IC50 is the concentration that gives 50% inhibition. The low end stands for inhibition by little substance, the high end for a need for much substance. In the case of `CC1=C(C(=O)N[C@@H](Cc2ccc(NC(=O)c3c(Cl)cccc3Cl)cc2)C(=O)O)C(C)(C)CC/C1=C\C(=O)O` [Example 118, N-[[(3E)-3-Carboxymethylene-2,6,6-trimethyl-1-cyclohexen-1-yl]carbonyl]-4-[(2,6-dichlorobenzoyl)amino]-L-phenylalanine], the IC50 is no more than 800 nM against α4β1 integrin and no more than 80 nM against α4β1.
Consider `CC(=O)[C@@H]1C[C@H](C(=O)N[C@@H](Cc2ccc(NC(=O)c3cccnc3Cl)cc2)C(=O)O)C1(C)C` [Example 105, (1S-cis)-N-[(3-Acetyl-2,2-dimethylcyclobutyl)carbonyl]-4-[[(2-chloro-3-pyridinyl)carbonyl]amino]-L-phenylalanine], for which the IC50 fell in the range of 800 to 5000 nM against α4β1 integrin and 80 to 500 nM against α4β1.
As for `O=C(Nc1ccc(CC(NC(=O)C2CCCCC2NC(=O)C2CCOC2)C(=O)O)cc1)c1c(Cl)cccc1Cl` (stereo not shown) [Example 87], the IC50 against α4β1 integrin was no more than 800 nM; on α4β1, 80 to 500 nM.
On the same counts, the results for `CC(=O)[C@H]1C[C@H](C(=O)N[C@@H](Cc2ccc(NC(=O)c3c(Cl)cccc3Cl)cc2)C(=O)O)C1(C)C` [Example 96, (1S-trans)-N-[(3-Acetyl-2,2-dimethylcyclobutyl)carbonyl]-4-[(2,6-dichlorobenzoyl)amino]-L-phenylalanine] are no more than 800 nM and no more than 80 nM.
As to `O=C(Nc1ccc(C[C@H](NC(=O)C2(NC(=O)C3CCCC(C(=O)O)C3)CCCCC2)C(=O)O)cc1)c1c(Cl)cccc1Cl` (stereo partly shown) [Example 52], the results for the IC50 at α4β1 integrin and on α4β1 were 800 to 5000 nM and no more than 80 nM, respectively.
In the same order, the values of `O=C(Nc1ccc(CC(NC(=O)C2CCCCC2NC(=O)C2NC(C(=O)O)CS2)C(=O)O)cc1)c1c(Cl)cccc1Cl` (stereo not shown) [Example 84] are no more than 800 nM and 80 to 500 nM.
Regarding `CC(=O)[C@H]1C[C@@H](CC(=O)N[C@@H](Cc2ccc(NC(=O)c3c(Cl)cccc3Cl)cc2)C(=O)O)C1(C)C` [Example 88, (1S-cis)-N-[(3-Acetyl-2,2-dimethylcyclobutyl)acetyl]-4-[(2,6-dichlorobenzoyl)amino]-L-phenylalanine], the IC50 against α4β1 integrin was 5000 to 10000 nM; at α4β1, 500 to 1000 nM.
With `O=C(O)CC1(CC(=O)NC2(C(=O)N[C@@H](Cc3ccc(NC(=O)c4c(Cl)cccc4Cl)cc3)C(=O)O)CCCCC2)CCCC1` [Example 47], the IC50 against α4β1 integrin lay in the range of 5000 to 10000 nM; against α4β1, 80 to 500 nM.
`O=C(N[C@@H](Cc1ccc(NC(=O)c2c(Cl)cccc2Cl)cc1)C(=O)O)c1cccc(NC(=O)C2CCCC(C(=O)O)C2)c1` (stereo partly shown) [Example 38]: the IC50 fell in the range of 800 to 5000 nM at α4β1 integrin and 500 to 1000 nM at α4β1.
With `O=C(NC1(C(=O)N[C@@H](Cc2ccc(NC(=O)c3c(Cl)cccc3Cl)cc2)C(=O)O)CC2CCC1C2)c1ccc([N+](=O)[O-])o1` (stereo partly shown) [Example 76], the half-maximal inhibitory concentration (IC50) is 800 to 5000 nM against α4β1 integrin and 80 to 500 nM against α4β1.
In the same order, the values of `O=C(O)/C=C\C(=O)NC1(C(=O)N[C@@H](Cc2ccc(NC(=O)c3c(Cl)cccc3Cl)cc2)C(=O)O)CCCCC1` [Example 49] are no more than 800 nM and 80 to 500 nM.
For `O=C(Nc1ccc(C[C@H](NC(=O)C2(NC(=O)C3NC(C(=O)O)CS3)CC3CCC2C3)C(=O)O)cc1)c1c(Cl)cccc1Cl` (stereo partly shown) [Example 75], the IC50 at α4β1 integrin was no more than 800 nM; on α4β1, 80 to 500 nM.
On the same counts, the results for `O=C(O)c1cccc(C(=O)NC2(C(=O)N[C@@H](Cc3ccc(NC(=O)c4c(Cl)cccc4Cl)cc3)C(=O)O)CC3CCC2C3)n1` (stereo partly shown) [Example 71] are 800 to 5000 nM and 80 to 500 nM.
On the same counts, the results for `O=C(NC1(C(=O)N[C@@H](Cc2ccc(NC(=O)c3c(Cl)cccc3Cl)cc2)C(=O)O)CC2CCC1C2)c1cccnc1` (stereo partly shown) [Example 70] are 800 to 5000 nM and 80 to 500 nM.
In the same order, the values of `O=C(O)c1cccc(C(=O)NC2(C(=O)N[C@@H](Cc3ccc(NC(=O)c4c(Cl)cccc4Cl)cc3)C(=O)O)CCCCC2)c1` [Example 57] are no more than 800 nM and 80 to 500 nM.
As for `O=C(Nc1ccc(C[C@H](NC(=O)[C@H]2CC[C@@H](C(=O)O)C2)C(=O)O)cc1)c1c(Cl)cccc1Cl` (mixture of isomers) [Example 112, N-[cis-(3-Carboxycyclopentyl)carbonyl]-4-[(2,6-dichlorobenzoyl)amino]-L-phenylalanine], the IC50 at α4β1 integrin was 800 to 5000 nM; at α4β1 it was 80 to 500 nM.
For the molecule `CC1(C)[C@H](C(=O)O)C[C@H]1C(=O)N[C@@H](Cc1ccc(NC(=O)c2c(Cl)cccc2Cl)cc1)C(=O)O` [Example 102, (1R-trans)-N-[(3-Carboxy-2,2-dimethylcyclobutyl)carbonyl]-4-[(2,6-dichlorobenzoyl)amino]-L-phenylalanine], the half-inhibitory concentration (IC50) against α4β1 integrin was no more than 800 nM; against α4β1, 80 to 500 nM.
Turning to `O=C(O)/C=C/c1cccc(C(=O)N[C@@H](Cc2ccc(NC(=O)c3c(Cl)cccc3Cl)cc2)C(=O)O)c1` [Example 124, N-[[3-[(E)-3-Hydroxy-3-oxo-1-propenyl]phenyl]carbonyl]-4-[(2,6-dichlorobenzoyl)amino]-L-phenylalanine], the values for the IC50 on α4β1 integrin and against α4β1 were 800 to 5000 nM and 500 to 1000 nM, respectively.
As for `O=C(/C=C/c1ccc(C(=O)O)cc1)N[C@@H](Cc1ccc(NC(=O)c2c(Cl)cccc2Cl)cc1)C(=O)O` [Example 123], the concentration for half-maximal inhibition (IC50) on α4β1 integrin fell in the range of 5000 to 10000 nM; against α4β1 it was 500 to 1000 nM.
`O=C(NC1(C(=O)N[C@@H](Cc2ccc(NC(=O)c3c(Cl)cccc3Cl)cc2)C(=O)O)CCCCC1)c1ccc([N+](=O)[O-])o1` [Example 67]: the IC50 against α4β1 integrin is no more than 800 nM; against α4β1 it was 80 to 500 nM.
On the same counts, the results for `CC(C)(CC(=O)O)CC(=O)NC1(C(=O)N[C@@H](Cc2ccc(NC(=O)c3c(Cl)cccc3Cl)cc2)C(=O)O)CCCCC1` [Example 48] are 800 to 5000 nM and 80 to 500 nM.
In the same order, the values of `CC(=O)CCC(=O)NC1(C(=O)N[C@@H](Cc2ccc(NC(=O)c3c(Cl)cccc3Cl)cc2)C(=O)O)CCCCC1` [Example 53] are no more than 800 nM and no more than 80 nM.
Turning to `O=C(Nc1ccc(C[C@H](NC(=O)C2(NC(=O)C3CCCO3)CCCCC2)C(=O)O)cc1)c1c(Cl)cccc1Cl` (stereo partly shown) [Example 68], the IC50 is no more than 800 nM on α4β1 integrin and 80 to 500 nM against α4β1.
In the same order, the values of `O=C(Nc1ccc(C[C@H](NC(=O)[C@@H]2CCC[C@H]2C(=O)O)C(=O)O)cc1)c1c(Cl)cccc1Cl` [Example 9] are 800 to 5000 nM and 500 to 1000 nM.
Consider `CC1=C(C(=O)N[C@@H](Cc2ccc(NC(=O)c3c(Cl)cccc3Cl)cc2)C(=O)O)C(C)(C)CC/C1=C\C#N` [Example 120, N-[[(3E)-3-Cyanomethylene-2,6,6-trimethyl-1-cyclohexen-1-yl]carbonyl]-4-[(2,6-dichlorobenzoyl)amino]-L-phenylalanine], for which the IC50 is no more than 800 nM against α4β1 integrin and no more than 80 nM on α4β1.
On the same counts, the results for `O=C(O)/C=C/C(=O)NC1(C(=O)N[C@@H](Cc2ccc(NC(=O)c3c(Cl)cccc3Cl)cc2)C(=O)O)CCCCC1` [Example 50] are 5000 to 10000 nM and 500 to 1000 nM.

The values are drawn from patent EP1144365B1 (TANABE SEIYAKU CO., LTD., priority 1998, dated 2000).
